Test results reported in ChEMBL document CHEMBL4043122, “Discovery of spiro[indole-3,2'-pyrrolidin]-2(1H)-one based inhibitors targeting Brr2, a core component of the U5 snRNP” (Bioorg Med Chem, 2017).
≈ marks a conversion by molar mass, not a printed value. Calls of active or inactive are those of the source. The calls are words filed in the database; no cut-off is given here.

Columns and labels:
[1] = biological target: T1, U5 small nuclear ribonucleoprotein 200 kDa helicase (Homo sapiens, UniProt O75643); assay: Inhibition of full length recombinant human N-terminal His-tagged BRR2 RNA dependent ATPase activity expressed in baculovirus infected Sf9 cells using single stranded poly(U) RNA as substrate after 30 mins by ADP-Glo luminescence assay
[2] = biological target: Eukaryotic initiation factor 4A-I (Homo sapiens, UniProt P60842); assay: Inhibition of elF4G-induced full length recombinant human N-terminal His6-SUMO-tagged eIF4A1 RNA dependent ATPase activity expressed in Escherichia coli BL21(DE3) using single stranded poly(U) RNA as substrate after 30 mins by ADP-Glo luminescence assay
[3] = biological target: Eukaryotic initiation factor 4A-III (Homo sapiens, UniProt P38919); assay: Inhibition of MLN51-induced full length recombinant human N-terminal His6/SUMO-tagged eIF4A3 RNA dependent ATPase activity expressed in Escherichia coli BL21(DE3) using single stranded poly(U) RNA as substrate after 30 mins by ADP-Glo luminescence assay
[4] = biological target: T2, ATP-dependent RNA helicase DHX29 (Homo sapiens, UniProt Q7Z478); assay: Inhibition of full length recombinant human N-terminal His-FLAG-tagged DHX29 RNA dependent ATPase activity expressed in baculovirus infected Sf9 insect cells using single stranded poly(U) RNA as substrate after 30 mins by ADP-Glo luminescence assay
T2 sequence (Q7Z478 whole entry): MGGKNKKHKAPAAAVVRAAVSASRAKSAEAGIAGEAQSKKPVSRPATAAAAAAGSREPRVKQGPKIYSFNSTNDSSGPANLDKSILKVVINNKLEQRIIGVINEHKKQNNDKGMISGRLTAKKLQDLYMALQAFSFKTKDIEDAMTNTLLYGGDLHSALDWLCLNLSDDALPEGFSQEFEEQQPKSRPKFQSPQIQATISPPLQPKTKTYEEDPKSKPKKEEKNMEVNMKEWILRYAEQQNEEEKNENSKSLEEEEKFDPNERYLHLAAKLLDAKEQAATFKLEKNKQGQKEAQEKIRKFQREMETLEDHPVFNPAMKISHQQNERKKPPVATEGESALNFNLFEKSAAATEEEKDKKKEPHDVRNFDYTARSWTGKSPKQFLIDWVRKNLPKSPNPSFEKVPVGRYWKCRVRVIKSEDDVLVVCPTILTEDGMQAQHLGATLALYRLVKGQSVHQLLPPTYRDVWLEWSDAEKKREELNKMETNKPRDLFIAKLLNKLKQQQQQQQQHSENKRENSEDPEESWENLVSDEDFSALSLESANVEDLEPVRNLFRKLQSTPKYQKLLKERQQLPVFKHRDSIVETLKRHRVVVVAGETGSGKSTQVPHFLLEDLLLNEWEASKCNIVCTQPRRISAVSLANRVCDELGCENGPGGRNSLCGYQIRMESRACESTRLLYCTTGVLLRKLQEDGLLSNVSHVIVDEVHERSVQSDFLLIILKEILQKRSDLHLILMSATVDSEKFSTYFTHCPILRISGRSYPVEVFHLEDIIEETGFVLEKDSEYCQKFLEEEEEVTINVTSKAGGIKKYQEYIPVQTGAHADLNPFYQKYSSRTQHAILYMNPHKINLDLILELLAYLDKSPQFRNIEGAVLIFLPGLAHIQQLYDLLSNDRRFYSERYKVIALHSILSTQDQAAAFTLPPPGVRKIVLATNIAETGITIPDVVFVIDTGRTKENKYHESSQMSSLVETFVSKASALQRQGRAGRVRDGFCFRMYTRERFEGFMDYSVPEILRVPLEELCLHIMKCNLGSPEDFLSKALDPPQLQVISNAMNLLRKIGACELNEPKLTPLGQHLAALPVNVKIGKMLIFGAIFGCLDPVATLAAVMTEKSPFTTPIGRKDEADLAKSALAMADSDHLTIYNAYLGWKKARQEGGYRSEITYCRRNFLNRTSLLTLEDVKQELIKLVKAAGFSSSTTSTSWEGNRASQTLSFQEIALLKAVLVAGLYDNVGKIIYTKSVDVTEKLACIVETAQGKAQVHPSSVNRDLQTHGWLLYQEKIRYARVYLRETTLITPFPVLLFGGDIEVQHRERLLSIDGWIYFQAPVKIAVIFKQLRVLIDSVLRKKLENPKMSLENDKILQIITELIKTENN

[5] = Solubility of the compound at pH 6.8; type: physicochemical; settings: buffer
[6] = biological target: T1, U5 small nuclear ribonucleoprotein 200 kDa helicase; assay: Inhibition of full length recombinant human N-terminal His-tagged BRR2 helicase activity expressed in baculovirus infected Sf9 cells using 5'-[FITC]-UUCCCCUGCAUAAC-3'/5'-GUUAUGCAGGGGAACCAACGCAUAUCAGUGAGGAUU-3' RNA as substrate after 10 mins in presence of ATP by PAGE analysis
[7] = Permeability of the compound at pH 7.4 by PAMPA; type: physicochemical; settings: read-out: permeability
[8] = biological target: T1, U5 small nuclear ribonucleoprotein 200 kDa helicase; assay: Inhibition of full length recombinant human N-terminal His-tagged BRR2 helicase activity expressed in baculovirus infected Sf9 cells using 5'-[FITC]-UUCCCCUGCAUAAC-3'/5'-GUUAUGCAGGGGAACCAACGCAUAUCAGUGAGGAUU-3' RNA as substrate at 100 uM after 10 mins in presence of ATP by PAGE analysis

Eukaryotic initiation factor 4A-I, sequence (P60842 whole entry): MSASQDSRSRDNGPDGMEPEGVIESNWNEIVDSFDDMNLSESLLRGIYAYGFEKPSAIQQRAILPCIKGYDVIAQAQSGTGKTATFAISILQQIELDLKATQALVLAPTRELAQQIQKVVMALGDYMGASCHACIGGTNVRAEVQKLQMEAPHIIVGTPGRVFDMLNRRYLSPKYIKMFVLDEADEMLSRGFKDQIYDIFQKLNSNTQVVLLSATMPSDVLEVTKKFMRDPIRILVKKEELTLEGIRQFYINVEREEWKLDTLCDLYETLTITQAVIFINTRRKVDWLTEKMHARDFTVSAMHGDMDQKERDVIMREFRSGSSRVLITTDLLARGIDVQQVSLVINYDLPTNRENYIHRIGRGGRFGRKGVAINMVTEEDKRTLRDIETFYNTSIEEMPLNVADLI
T1 sequence (O75643 whole entry): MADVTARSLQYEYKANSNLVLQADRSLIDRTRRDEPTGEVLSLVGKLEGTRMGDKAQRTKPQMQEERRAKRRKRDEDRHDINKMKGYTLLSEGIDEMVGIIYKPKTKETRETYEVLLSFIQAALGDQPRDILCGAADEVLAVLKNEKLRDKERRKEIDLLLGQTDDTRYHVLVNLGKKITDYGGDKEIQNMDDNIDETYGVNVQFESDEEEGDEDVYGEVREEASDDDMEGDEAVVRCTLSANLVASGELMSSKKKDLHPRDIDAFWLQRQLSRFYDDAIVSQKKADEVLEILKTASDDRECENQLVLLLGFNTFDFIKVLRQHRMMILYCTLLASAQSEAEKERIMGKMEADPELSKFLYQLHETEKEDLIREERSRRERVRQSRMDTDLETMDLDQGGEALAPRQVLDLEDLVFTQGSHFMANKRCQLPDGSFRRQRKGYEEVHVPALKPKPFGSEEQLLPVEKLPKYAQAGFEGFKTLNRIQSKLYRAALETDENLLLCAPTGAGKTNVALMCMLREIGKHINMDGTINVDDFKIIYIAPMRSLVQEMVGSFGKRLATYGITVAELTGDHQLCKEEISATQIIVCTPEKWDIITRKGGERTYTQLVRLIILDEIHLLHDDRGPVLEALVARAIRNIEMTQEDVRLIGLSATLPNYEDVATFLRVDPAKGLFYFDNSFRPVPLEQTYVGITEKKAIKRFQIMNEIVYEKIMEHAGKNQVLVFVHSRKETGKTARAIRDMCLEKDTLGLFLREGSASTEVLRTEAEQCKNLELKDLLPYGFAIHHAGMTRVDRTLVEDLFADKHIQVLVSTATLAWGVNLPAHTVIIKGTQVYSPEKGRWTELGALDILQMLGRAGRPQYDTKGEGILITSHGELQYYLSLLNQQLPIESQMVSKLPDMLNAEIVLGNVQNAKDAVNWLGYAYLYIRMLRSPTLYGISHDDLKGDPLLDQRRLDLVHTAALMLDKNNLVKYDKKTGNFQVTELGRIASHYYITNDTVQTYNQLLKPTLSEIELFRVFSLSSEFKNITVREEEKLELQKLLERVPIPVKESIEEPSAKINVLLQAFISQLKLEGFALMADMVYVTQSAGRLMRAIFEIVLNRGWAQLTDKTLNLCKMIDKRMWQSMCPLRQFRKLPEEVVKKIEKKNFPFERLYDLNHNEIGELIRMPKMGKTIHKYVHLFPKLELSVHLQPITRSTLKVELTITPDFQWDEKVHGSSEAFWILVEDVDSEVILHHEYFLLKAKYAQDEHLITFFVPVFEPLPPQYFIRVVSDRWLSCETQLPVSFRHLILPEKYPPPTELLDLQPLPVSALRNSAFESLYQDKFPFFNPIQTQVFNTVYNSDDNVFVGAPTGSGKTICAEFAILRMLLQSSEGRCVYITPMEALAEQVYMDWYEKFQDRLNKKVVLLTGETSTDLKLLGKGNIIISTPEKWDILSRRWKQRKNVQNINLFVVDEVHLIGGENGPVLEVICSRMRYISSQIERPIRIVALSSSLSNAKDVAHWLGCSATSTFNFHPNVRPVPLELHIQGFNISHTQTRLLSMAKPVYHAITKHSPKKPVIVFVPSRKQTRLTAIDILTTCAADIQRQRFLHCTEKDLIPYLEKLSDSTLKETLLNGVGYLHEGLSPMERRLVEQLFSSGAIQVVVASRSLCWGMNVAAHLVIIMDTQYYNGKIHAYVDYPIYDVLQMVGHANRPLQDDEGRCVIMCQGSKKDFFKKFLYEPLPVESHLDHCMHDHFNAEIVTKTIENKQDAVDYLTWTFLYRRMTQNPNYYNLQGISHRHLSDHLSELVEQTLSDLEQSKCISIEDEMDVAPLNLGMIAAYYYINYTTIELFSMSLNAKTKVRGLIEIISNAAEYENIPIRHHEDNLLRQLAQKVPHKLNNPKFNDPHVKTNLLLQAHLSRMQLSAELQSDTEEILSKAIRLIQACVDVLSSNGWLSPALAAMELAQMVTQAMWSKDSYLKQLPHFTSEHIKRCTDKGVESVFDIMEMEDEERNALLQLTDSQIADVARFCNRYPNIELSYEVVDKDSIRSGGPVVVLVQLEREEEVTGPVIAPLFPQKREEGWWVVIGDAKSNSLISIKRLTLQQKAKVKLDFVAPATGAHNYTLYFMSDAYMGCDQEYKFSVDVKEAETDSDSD
Eukaryotic initiation factor 4A-III, sequence (P38919 whole entry): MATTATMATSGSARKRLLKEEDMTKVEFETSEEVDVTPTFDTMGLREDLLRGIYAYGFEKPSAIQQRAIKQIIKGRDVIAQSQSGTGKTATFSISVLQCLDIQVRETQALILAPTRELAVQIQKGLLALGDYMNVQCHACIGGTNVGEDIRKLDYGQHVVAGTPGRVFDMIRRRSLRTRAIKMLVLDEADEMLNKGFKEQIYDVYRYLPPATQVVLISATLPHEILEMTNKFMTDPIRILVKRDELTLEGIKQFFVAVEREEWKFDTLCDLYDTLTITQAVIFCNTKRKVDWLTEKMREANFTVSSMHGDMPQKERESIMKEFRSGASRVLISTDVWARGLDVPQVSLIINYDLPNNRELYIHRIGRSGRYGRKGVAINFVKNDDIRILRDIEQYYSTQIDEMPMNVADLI

SMILES	IC50 [1] [µM]	IC50 [2] [µM]	IC50 [3] [µM]	IC50 [4] [µM]	solubility [5] [µg/mL]	IC50 [6] [µM]	Papp [7] [×10⁻⁶ cm/s]	inhibition [8]
CC(C)C[C@H]1C[C@@H](C)[C@]2(C(=O)Nc3ccc(F)cc32)N1C(=O)c1cn(C)cn1	0.021	> 100	> 100	> 100	> 99	0.48	18.3	
CC(C)C[C@@H]1C[C@H](C)[C@@]2(C(=O)Nc3ccc(F)cc32)N1C(=O)c1cn(C)cn1	84	> 100	> 100		> 110		16.8	inactive
CC(C)C[C@H]1C[C@@H](C)[C@]2(C(=O)Nc3ccc(F)cc32)N1C(=O)c1cn(Cc2ccccc2)cn1 (racemic)	0.024							
CC(C)C[C@H]1C[C@@H](C)[C@]2(C(=O)Nc3ccc(F)cc32)N1C(=O)c1cn(C)cn1 (racemic)	0.042							
CC(C)C[C@@H]1C[C@H](C)[C@@]2(C(=O)Nc3ccc(F)cc32)N1C(=O)c1cn(Cc2ccccc2)cn1	> 100	> 100	> 100		46 (≈ 99.9 µM)		19.5	inactive
CC(C)C[C@H]1C[C@@H](C)[C@]2(C(=O)Nc3ccc(F)cc32)N1C(=O)c1cn(Cc2ccccc2)cn1	0.011	> 100	> 100	> 100	45 (≈ 97.7 µM)	0.35	18.2	
